The text below walks through data of US6548494B1, “Tricyclic inhibitors of poly(ADP-ribose) polymerases” (Agouron Pharmaceuticals, Inc., priority 1999, dated 2003).

One data set has as its target purified PARP protein (Homo sapiens, UniProt P09874). Briefly: PARP enzyme inhibition assay. The class given is biochemical.
[1] abbreviates: 20 nM purified PARP (5 nM for tight-binding inhibitors), 500 μM NAD+, 25° C., several values in one cell = repeat determinations, read-out: Inhibition Constant Ki.

Values joined by “and” are separate entries in the source; they are usually repeats but may differ in a detail not shown here. Identical values can stand only once. Counter-ions that a name gives are not always drawn. Like-named read-outs stand apart in the source and are kept apart here.

Sequence of purified PARP protein (P09874 whole entry): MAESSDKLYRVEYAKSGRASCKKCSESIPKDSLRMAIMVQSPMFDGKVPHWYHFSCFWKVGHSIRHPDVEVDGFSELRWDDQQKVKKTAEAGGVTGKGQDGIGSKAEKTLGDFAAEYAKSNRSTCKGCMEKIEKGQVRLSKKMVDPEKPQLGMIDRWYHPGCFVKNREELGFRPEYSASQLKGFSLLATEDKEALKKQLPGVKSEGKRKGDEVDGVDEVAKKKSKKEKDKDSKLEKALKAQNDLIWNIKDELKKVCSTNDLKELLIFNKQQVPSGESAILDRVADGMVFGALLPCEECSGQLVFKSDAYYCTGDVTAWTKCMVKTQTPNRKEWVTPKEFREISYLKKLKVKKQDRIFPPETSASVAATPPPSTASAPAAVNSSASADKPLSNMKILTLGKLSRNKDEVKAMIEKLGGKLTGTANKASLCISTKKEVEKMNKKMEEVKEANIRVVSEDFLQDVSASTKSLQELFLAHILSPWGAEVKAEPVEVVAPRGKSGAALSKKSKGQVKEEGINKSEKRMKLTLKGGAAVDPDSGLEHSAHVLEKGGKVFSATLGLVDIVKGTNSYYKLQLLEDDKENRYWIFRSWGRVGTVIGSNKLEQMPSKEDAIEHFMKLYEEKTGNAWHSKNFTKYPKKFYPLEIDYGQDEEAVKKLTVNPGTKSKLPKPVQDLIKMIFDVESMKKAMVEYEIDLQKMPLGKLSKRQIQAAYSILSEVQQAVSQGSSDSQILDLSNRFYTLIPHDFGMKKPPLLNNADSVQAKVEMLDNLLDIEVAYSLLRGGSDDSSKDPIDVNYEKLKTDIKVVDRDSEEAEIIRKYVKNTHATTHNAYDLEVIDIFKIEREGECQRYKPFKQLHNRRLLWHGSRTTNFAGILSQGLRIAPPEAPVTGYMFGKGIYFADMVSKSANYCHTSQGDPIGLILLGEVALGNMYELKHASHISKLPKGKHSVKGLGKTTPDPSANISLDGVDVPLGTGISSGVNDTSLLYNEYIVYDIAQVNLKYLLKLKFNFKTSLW

The molecule `O=Cc1c(-c2ccc(F)cc2)n2c3c(cccc13)C(=O)NCC2` registered a melting point of 268 to 270 °C. On the same count and under the same terms, next, `N/N=C(\N)c1c(-c2ccc(F)cc2)n2c3c(cccc13)C(=O)NCC2` (as salt: hydrochloride) [Example 156, 7-Formyl-6-(4-fluorophenyl)-1-oxo-3,4-dihydro-[1,4]diazepino[6,7,1-hi]indole Amidrazone Hydrochloride]: 272 to 274 °C. For the molecule `O=C1NCCn2c(-c3ccno3)nc3cccc1c32` [Example 13, 1-Isoxazol-5-yl-8,9-dihydro-7H-2,7,9a-triaza-benzo[cd]azulen-6-one], the melting point was 226 °C (dec.). Further, the Ki at purified PARP protein (setting [1]) was determined as 10.1 nM. As to `O=C1NCCn2c(-c3ccnc(Cl)c3)nc3cccc1c32` [Example 15, 1-(2-Chloropyridin-4-yl)-8,9-dihydro-7H-2,7,9a-triaza-benzo[cd]azulen-6-one], the melting point was 265 °C (dec.). Moreover, the Ki on purified PARP protein (setting [1]) is 12.1 nM.

Turning to `O=C1NCCn2c(-c3cccc(Oc4cccnc4)c3)nc3cccc1c32` [Example 16, 1-[3-(Pyridin-3-yloxy)-phenyl]-8,9-dihydro-7H-2,7,9a-triaza-benzo[cd]azulen-6-one], the melting point lay in the range of 223 to 225 °C. For the same molecule, at purified PARP protein (setting [1]), the Ki amounted to 7.2 nM.

Regarding `CC(C)(C)c1nc2cccc3c2n1CCNC3=O` [Example 22, 1-tert-Butyl-8,9-dihydro-7H-2,7,9a-triaza-benzo[cd]azulen-6-one], the melting point fell in the range of 246 to 248 °C. For the same molecule, at purified PARP protein (setting [1]), the Ki is 13 nM and 14 nM and 15 nM. `CC(C)Cc1nc2cccc3c2n1CCNC3=O` [Example 23, 1-Isobutyl-8,9-dihydro-7H-2,7,9a-triaza-benzo[cd]azulen-6-one] registered a melting point of 211 to 212 °C. In addition, the inhibitory constant (Ki) on purified PARP protein (setting [1]) turned out to be 17.3 nM. As to `CN1CCn2c(-c3cccc4ccccc34)nc3cccc(c32)C1=O` [Example 27, 7-Methyl-1-naphthalen-1-yl-8,9-dihydro-7H-2,7,9a-triaza-benzo[cd]azulen-6-one], the melting point is 126 °C (dec.).

The molecule `O=C1NCCn2c(SCc3ccccc3)nc3cccc1c32` [Example 29, 1-Benzylsulfanyl-8,9-dihydro-7H-2,7,9a-triaza-benzo[cd]azulen-6-one] came in with a melting point of 189 to 191 °C. The inhibition constant Ki at purified PARP protein (setting [1]) came out at 24 nM. As to `O=C1NCCn2c(-c3cccc(C4OCCCO4)c3)nc3cccc1c32` [Example 30, 1-(3-[1,3]-Dioxan-2-yl-phenyl)-8,9-dihydro-7H-2,7,9a-triaza-benzo[cd]azulen-6-one], the melting point was 247 °C (dec.).

`COC(OC)c1cccc(-c2nc3cccc4c3n2CCNC4=O)c1` [Example 31a, 1-(3-Dimethoxymethyl-phenyl)-8,9-dihydro-7H-2,7,9a-triaza-benzo[cd]azulen-6-one] gave a melting point of 182 to 185 °C. For the same molecule, the inhibition constant (Ki) at purified PARP protein (setting [1]) stood at 22 nM.

`O=C1NCCn2c(-c3cccc(CO)c3)nc3cccc1c32` [Example 32a, 1-(3-Hydroxymethyl-phenyl)-8,9-dihydro-7H-2,7,9a-triaza-benzo[cd]azulen-6-one] showed a melting point of 275 to 278 °C. For the same molecule, on purified PARP protein (setting [1]), the inhibitory constant (Ki) amounted to 8.8 nM. In the same order, the values of `COc1ccc(-c2cc3cccc4c3n2CCNC4=O)cc1` [Example 35, 6-(4-Methoxyphenyl)-3,4-dihydro-2H-[1,4]diazepino[6,7,1-hi]indol-1-one] are 193 to 195 °C and 8.2 nM. The molecule `O=C1NCCn2c(CCc3ccccc3)cc3cccc1c32` [Example 36, 6-Phenethyl-3,4-dihydro-2H-[-1,4]diazepino[6,7,1-hi]indol-1-one] registered a melting point of 133 to 135 °C. Further, the Ki on purified PARP protein (Inhibition Constant Ki (nM)) was determined as 27 nM.

`O=C1NCCn2c(-c3ccccn3)cc3cccc1c32` [Example 40, 6-Pyridin-2-yl-3,4-dihydro-2H-[1,4]diazepino[6,7,1-hi]indol-1-one] showed a melting point of 173 to 175 °C. Further, on purified PARP protein (setting [1]), the Ki is 68 nM. `O=C1NCCn2c(-c3cccc(C4OCCO4)c3)nc3cccc1c32` [Example 55, (3-[1,3]Dioxolan-2-yl-phenyl)-8,9-dihydro-7H-2,7,9a-triaza-benzo[cd]azulen-6-one] yielded a melting point of 223 to 225 °C. Moreover, the Ki on purified PARP protein (setting [1]) was 10 nM. The like results for `CCOC(OCC)c1ccc(-c2nc3cccc4c3n2CCNC4=O)cc1` [Example 56, 1-(4-Diethoxymethyl-phenyl)-8,9-dihydro-7H-2,7,9a-triaza-benzo[cd]azulen-6-one] were, in that order, 213 to 215 °C and 32 nM.

Consider `O=C1NCCn2c(-c3cccc(CN4CCCC4)c3)nc3cccc1c32` [Example 60, 1-(3-Pyrrolidin-1-ylmethyl-phenyl)-8,9-dihydro-7H-2,7,9a-triaza-benzo[cd]azulen-6-one], for which the melting point was 92 °C (dec.). Besides, at purified PARP protein (setting [1]), the inhibition constant Ki stood at 6.2 nM. `O=C1NCCn2c(-c3cccc(Oc4cccc(C(F)(F)F)c4)c3)nc3cccc1c32` [Example 61, 1-[3-(3-Trifluoromethyl-phenoxy)-phenyl]-8,9-dihydro-7H-2,7,9a-triaza-benzo[cd]azulen-6-one] returned a melting point of 121 to 122 °C. For the same molecule, the inhibition constant (Ki) at purified PARP protein (setting [1]) was 6.2 nM.

`O=C1NCCn2c(-c3cccc(Oc4ccc(Cl)cc4)c3)nc3cccc1c32` [Example 62, 1-[3-(4-Chlorophenoxy)-phenyl]-8,9-dihydro-7H-2,7,9a-triaza-benzo[cd]azulen-6-one] registered a melting point of 211 to 212 °C. Further, the inhibitory constant (Ki) at purified PARP protein (setting [1]) came out at 6.1 nM. In the same order, the values of `O=C1NCCn2c(-c3cccc(Oc4ccc(Cl)c(Cl)c4)c3)nc3cccc1c32` [Example 63, 1-[3-(3,4-Dichlorophenoxy)-phenyl]-8,9-dihydro-7H-2,7,9a-triaza-benzo[cd]azulen-6-one] are 252 to 254 °C (dec.) and 13 nM.

With `COc1ccc(Oc2cccc(-c3nc4cccc5c4n3CCNC5=O)c2)cc1` [Example 64, 1-[3-(4-Methoxyphenoxy)-phenyl]-8,9-dihydro-7H-2,7,9a-triaza-benzo[cd]azulen-6-one], the melting point lay within 196 to 198 °C. Also, at purified PARP protein (setting [1]), the Ki came to 6.2 nM. The like results for `O=C1NCCn2c(-c3cccc(Oc4cc(Cl)cc(Cl)c4)c3)nc3cccc1c32` [Example 65, 1-[3-(3,5-Dichlorophenoxy)-phenyl]-8,9-dihydro-7H-2,7,9a-triaza-benzo[cd]azulen-6-one] were, in that order, 258 to 259 °C (dec.) and 11 nM. In the case of `O=C(c1ccccc1)c1cccc(-c2nc3cccc4c3n2CCNC4=O)c1` [Example 66, 1-(3-Benzoylphenyl)-8,9-dihydro-7H-2,7,9a-triaza-benzo[cd]azulen-6-one], the melting point is 237 to 238 °C (dec.). For the same molecule, on purified PARP protein (setting [1]), the Ki stood at 8.9 nM. The like results for `O=C1NCCn2c(-c3cccc(Cc4ccccc4)c3)nc3cccc1c32` [Example 67, 1-(3-Benzylphenyl)-8,9-dihydro-7H-2,7,9a-triaza-benzo[cd]azulen-6-one] were, in that order, 205 to 208 °C and 9.3 nM. The like results for `O=C1NCCn2c(-c3cccc(C4OCCO4)c3)nc3cc(F)cc1c32` [Example 68, 1-(3-[1,3]Dioxolan-2-yl-phenyl)-4-fluoro-8,9-dihydro-7H-2,7,9a-triaza-benzo[cd]azulen-6-one] were, in that order, 262 to 264 °C (dec.) and 5.8 nM.

Take `CN(C)Cc1cccc(-c2nc3cc(F)cc4c3n2CCNC4=O)c1` [Example 70, 1-(3-Dimethylaminomethyl-phenyl)-4-fluoro-8,9-dihydro-7H-2,7,9a-triaza-benzo[cd]azulen-6-one]: the melting point is 215 to 217 °C (dec.). For the same molecule, on purified PARP protein (setting [1]), the Ki amounted to 4.4 nM. The molecule `CN(C)c1cc(-c2nc3cccc4c3n2CCNC4=O)ccn1` [Example 71, 1-(2-Dimethylamino-pyridin-4-yl)-8,9-dihydro-7H-2,7,9a-triaza-benzo[cd]azulen-6-one] yielded a melting point of 266 to 268 °C. The inhibition constant Ki at purified PARP protein (setting [1]) was 13 nM.

`CNCc1cccc(-c2nc3cc(F)cc4c3n2CCNC4=O)c1` [Example 72, 1-(3-Methylaminomethyl-phenyl)-4-fluoro-8,9-dihydro-7H-2,7,9a-triaza-benzo[cd]azulen-6-one]: the melting point was in the range of 196 to 198 °C. Moreover, the Ki at purified PARP protein (setting [1]) came to 3.5 nM. Regarding `CNCc1ccc(-c2cc3cccc4c3n2CCNC4=O)cc1` [Example 83, 6-(4-Methylaminomethyl-phenyl)-3,4-dihydro-2H-[1,4]diazepino[6,7,1-hi]indol-1-one], the melting point fell in the range of 178 to 180 °C. The same measure, in the same setting: next, `O=Cc1ccc(-c2cc3cc(F)cc4c3n2CCNC4=O)cc1` [Example 169, 4-(9-Fluoro-1-oxo-1,2,3,4-tetrahydro-[1,4]diazepino[6,7,1-hi]indol-6-yl)-benzaldehyde]: 212 to 214 °C.

As for `Cc1ccc(C)n1Cc1ccc(-c2nc3cccc4c3n2CCNC4=O)cc1` [Example 244, 1-[4-(2,5-Dimethyl-pyrrol-1-ylmethyl)-phenyl]-8,9-dihydro-7H-2,7,9a-triaza-benzo[cd]azulen-6-one], the Ki at purified PARP protein (setting [1]) is 14 nM. Same read-out and setting: next, `CC(O)c1ccc(-c2nc3cccc4c3n2CCNC4=O)cc1` (stereo not shown) [Example 245a, 1-[4-(1-Hydroxy-ethyl)-phenyl]-8,9-dihydro-7H-2,7,9a-triaza-benzo[cd]azulen-6-one]: 5.2 nM and 5.3 nM. With `O=C1NCCn2c(-c3ccc(C(Cc4ccccc4)N4CCCC4)cc3)nc3cccc1c32` (stereo not shown) [Example 247, 1-[4-(2-Phenyl-1-pyrrolidin-1-yl-ethyl)-phenyl]-8,9-dihydro-7H-2,7,9a-triaza-benzo[cd]azulen-6-one], on purified PARP protein (setting [1]), the inhibitory constant (Ki) turned out to be 5.4 nM. On the same count and under the same terms, next, `O=C1NCCn2c(-c3ccc(C(O)Cc4ccccc4)cc3)nc3cccc1c32` (stereo not shown) [Example 247a, 1-[4-(1-Hydroxy-2-phenyl-ethyl)-phenyl]-8,9-dihydro-7H-2,7,9a-triaza-benzo[cd]azulen-6-one]: 10 nM; `O=C1NCCn2c(-c3ccc(/C=C/c4ccccc4)cc3)nc3cccc1c32` [Example 247c, 1-[4-((E)-Styryl)-phenyl]-8,9-dihydro-7H-2,7,9a-triaza-benzo[cd]azulen-6-one]: 16 nM.

As usually defined, the melting point is the temperature, or range, at which the solid turns liquid. In general, Ki refers to the dissociation constant of the complex between target and ligand, obtained from inhibition or displacement.
